Data from the NIST ThermoML archive (doi:10.1016/j.tca.2014.07.025).
± gives the expanded uncertainty stated by the source.

Assay: mn = molality of the nth substance listed, in mol/kg
Details: 100 kPa, Liquid; for speed of sound: Frequency=3 MHz, Sing-around technique in a fixed-path interferometer; for mass density: Vibrating tube method

NCC(=O)NCC(=O)O [glycylglycine] + O
Details	mass density, 305.15 K [kg/m3]	mass density, 310.15 K [kg/m3]	mass density, 315.15 K [kg/m3]	speed of sound, 305.15 K [m/s]	speed of sound, 310.15 K [m/s]	speed of sound, 315.15 K [m/s]
m1 = 0.00206	995.2 ± 0.61	993.513 ± 0.61	991.618 ± 0.61	1514.1 ± 1.3	1524.1 ± 1.3	1532.4 ± 1.3
m1 = 0.00597	995.41 ± 0.61	993.721 ± 0.61	991.824 ± 0.61	1514.8 ± 1.3	1524.7 ± 1.3	1532.9 ± 1.3
m1 = 0.00797	995.517 ± 0.61	993.827 ± 0.61	991.929 ± 0.61	1515.2 ± 1.3	1525.1 ± 1.3	1533.5 ± 1.3
m1 = 0.01021	995.637 ± 0.61	993.946 ± 0.61	992.047 ± 0.61	1515.4 ± 1.3	1525.2 ± 1.3	1533.6 ± 1.3
m1 = 0.02015	996.168 ± 0.61	994.474 ± 0.61	992.568 ± 0.61	1515.8 ± 1.3	1525.6 ± 1.3	1534 ± 1.3
m1 = 0.05037	997.778 ± 0.6	996.073 ± 0.61	994.147 ± 0.61	1517.8 ± 1.3	1527.5 ± 1.3	1535.8 ± 1.3
m1 = 0.1008	1000.45 ± 0.6	998.723 ± 0.6	996.764 ± 0.6	1521.6 ± 1.3	1531.2 ± 1.3	1539.4 ± 1.3
m1 = 0.2021	1005.75 ± 0.61	1003.99 ± 0.6	1001.97 ± 0.6	1529.5 ± 1.3	1538.8 ± 1.3	1546.9 ± 1.3
m1 = 0.2959	1010.58 ± 0.6	1008.79 ± 0.6	1006.71 ± 0.6	1536 ± 1.3	1545.4 ± 1.3	1553 ± 1.3
m1 = 0.4	1015.86 ± 0.6	1014.03 ± 0.6	1011.88 ± 0.6	1542.5 ± 1.3	1551.6 ± 1.3	1559.3 ± 1.3
